The values below come from patent publication US9457033B2, “Steroid alkaloids and uses thereof as antimicrobial agents against electron transport-deficient microbes and as potentiators for antimicrobial agents against pathogenic bacteria” (priority 2011, dated 2016).

In assay [1] the test system is S. aureus N315. The experiment in a line: microbe, parasite or virus in culture. In kind it is cell-based, Staphylococcus aureus. The following applies: N315; Human (HA); MRSA.
The test system of assay [2] is S. aureus Newbould (normal strain). The experiment in a line: MIC, microdilution in BHI 48 h. In kind it is cell-based, Staphylococcus aureus. The following applies: Newbould, normal strain. For orientation: Broth dilution looks for growth in wells or tubes with falling amounts of substance.
Assay [3] concerns S. aureus Sa220c. The experiment in a line: MIC, microdilution in CAMHB 24 h. The class given is cell-based, Staphylococcus aureus. The following applies: Sa220c; Human (SSTI); MRSA.
In assay [4] the test system is S. aureus CF4B-L. The experiment in a line: MIC, microdilution in CAMHB 24 h. The class given is cell-based, Staphylococcus aureus. The conditions noted are these: CF4B-L; Human (CF lungs).
Assay [5] deals with S. aureus CF35A-L. The experiment in a line: MIC, microdilution in CAMHB 24 h. The following applies: CF35A-L; Human (CF lungs); MRSA. In kind it is cell-based, Staphylococcus aureus.
The test system of assay [6] is S. aureus Newbould. The experiment in a line: MIC, microdilution in CAMHB 24 h. The following applies: Newbould; Cow (mastitis). In kind it is cell-based, Staphylococcus aureus.
For assay [7], the system named is S. aureus CF2A-L. The experiment in a line: MIC, microdilution in CAMHB 24 h. In kind it is cell-based. The conditions noted are these: CF2A-L; Human (CF lungs).
The subject of assay [8] is S. aureus CF07-L (normal strain). The experiment in a line: MIC, microdilution in BHI 48 h (Examples 1, 3). In kind it is cell-based, Staphylococcus aureus.
Assay [9] concerns S. aureus ATCC BAA-41. The experiment in a line: MIC, microdilution in CAMHB 24 h. The class given is cell-based, Staphylococcus aureus. The conditions noted are these: ATCC BAA-41; Human (HA); MRSA.
Assay [10] concerns S. aureus SHY97-3906. The experiment in a line: MIC, microdilution in CAMHB 24 h. The conditions noted are these: SHY97-3906; Cow (mastitis). The class given is cell-based, Staphylococcus aureus.
For assay [11], the system named is S. aureus Sa228c. The experiment in a line: MIC, microdilution in CAMHB 24 h. The class given is cell-based, Staphylococcus aureus. The following applies: Sa228c; Human (SSTI); MRSA.
For assay [12], the system named is S. aureus CF1A-L. The experiment in a line: MIC, microdilution in CAMHB 24 h. In kind it is cell-based, Staphylococcus aureus. The conditions noted are these: CF1A-L; Human (CF lungs).
Assay [13] concerns S. aureus CF07-L. The experiment in a line: MIC, microdilution in CAMHB 24 h. The conditions noted are these: CF07-L; Human (CF lungs). In kind it is cell-based, Staphylococcus aureus.
The test system of assay [14] is S. aureus CF1A-L (normal strain). The experiment in a line: MIC, microdilution in BHI 48 h. In kind it is cell-based, Staphylococcus aureus. The conditions noted are these: CF1A-L, normal strain.
Assay [15] concerns S. aureus Mu50. The experiment in a line: MIC, microdilution in CAMHB 24 h. The class given is cell-based, Staphylococcus aureus. The conditions noted are these: Mu50; Human (SSTI); MRSA, VISA.
Assay [16] has as its system S. aureus MRSA COL. The experiment in a line: MIC, microdilution in CAMHB 24 h. The class given is cell-based, Staphylococcus aureus. The following applies: MRSA COL; Human (SSTI).
In assay [17] the test system is S. aureus CF6B-L. The experiment in a line: MIC, microdilution in CAMHB 24 h. The class given is cell-based, Staphylococcus aureus. The following applies: CF6B-L; Human (CF lungs).
The subject of assay [18] is S. aureus MA078038. The experiment in a line: MIC, microdilution in CAMHB 24 h. The class given is cell-based, Staphylococcus aureus. The conditions noted are these: MA078038; Human (CA); MRSA.
For assay [19], the system named is S. aureus ATCC 43300. The experiment in a line: MIC, microdilution in CAMHB 24 h. In kind it is cell-based, Staphylococcus aureus. The conditions noted are these: ATCC 43300; Human (HA); MRSA.
Assay [20] concerns S. aureus ATCC 29213. The experiment in a line: MIC, microdilution in BHI 48 h (Examples 1, 3). The class given is cell-based, Staphylococcus aureus.
Assay [21] concerns S. aureus CF7A-L. The experiment in a line: MIC, microdilution in CAMHB 24 h. The class given is cell-based, Staphylococcus aureus. The conditions noted are these: CF7A-L; Human (CF lungs); MRSA.
Assay [22] has as its system S. aureus ATCC 29213. The experiment in a line: MIC, microdilution in CAMHB 24 h, with or without tomatidine/compound. The following applies: for MIC / MIC −TO / MIC +TO / Fold (−TO/+TO): ATCC 29213; for MIC: Human (SSTI); for MIC −TO: absence of tomatidine; for MIC +TO: presence of tomatidine at 8 μg/ml; for Fold (−TO/+TO): tomatidine at 8 μg/ml; for MIC of Cpd against ATCC29213: compound alone; for Fold (MIC of GEN alone/MIC of GEN with Cpd): gentamicin with 8 μg/ml of Cpd, provided in categories of synergy (1-2 no or mild; 4-16 moderate or strong). In kind it is cell-based, Staphylococcus aureus.

The subject of assay [23] is S. aureus Newman. The experiment in a line: MIC, microdilution in CAMHB 24 h. The conditions noted are these: Newman; Human (Osteo). In kind it is cell-based, Staphylococcus aureus.
The subject of assay [24] is S. aureus CF9A-L. The experiment in a line: MIC, microdilution in CAMHB 24 h. In kind it is cell-based, Staphylococcus aureus. The following applies: CF9A-L; Human (CF lungs); MRSA.
The subject of assay [25] is S. aureus 8325-4. The experiment in a line: MIC, microdilution in CAMHB 24 h. The conditions noted are these: 8325-4; Laboratory strain. The class given is cell-based, Staphylococcus aureus.
Assay [26] relates to S. aureus SCV NewbouldΔhemB. The experiment in a line: MIC, microdilution in BHI 48 h. The class given is cell-based, Staphylococcus aureus. The following applies: NewbouldΔhemB, SCV.
The subject of assay [27] is S. aureus CF8E-L. The experiment in a line: MIC, microdilution in CAMHB 24 h. The following applies: CF8E-L; Human (CF lungs). In kind it is cell-based, Staphylococcus aureus.
The test system of assay [28] is S. aureus SCV strain NewbouldΔhemB. The experiment in a line: MIC of compounds against SCV. The class given is cell-based, Staphylococcus aureus. The conditions noted are these: provided in categories (strong ≦ 0.5; moderate 4-8; low > 8).

Converted amounts (≈) assume the structure as drawn. Where only a bound is given, the exact number is not on record here.

For `Cc1onc(-c2ccccc2)c1C(=O)N[C@@H]1C(=O)N2[C@@H]1SC(C)(C)[C@@H]2C(=O)O` [Oxacillin, oxacillin], the MIC in [1] is 8 (R) μg/ml; in [2] it was 0.06 to 0.12 µg/mL; in assay [3], 16-32 (R) μg/ml; in [4], 0.5 µg/mL (≈ 1.25 µM); in [5], >64 (R) μg/ml; in [6], 0.12 µg/mL (≈ 0.299 µM). The MIC is 0.25 µg/mL (≈ 0.623 µM) in [7]; 0.06 to 0.12 µg/mL in assay [8] (CF07-L + HQNO at 20 μg/ml); 0.06 to 0.12 µg/mL in [8] (CF07-L, normal strain); 0.06 to 0.12 µg/mL in assay [8] (CF07-L, without HQNO); >64 (R) μg/ml in assay [9]; 0.12 to 0.25 µg/mL in assay [10]. Further, the MIC was >64 (R) μg/ml in assay [11]; 0.25 to 0.5 µg/mL in assay [12]; 0.12 to 0.25 µg/mL in assay [13]; 0.25 µg/mL (≈ 0.623 µM) in [14]; >64 (R) μg/ml in assay [15]; >64 (R) μg/ml in [16]. The MIC in assay [17] was 0.25 to 1 µg/mL; in assay [18], 64 (R) μg/ml; in [19], 16-32 (R) μg/ml; in assay [20] (ATCC 29213 + HQNO at 20 μg/ml), 0.12 µg/mL; in [20] (ATCC 29213, without HQNO), 0.12 to 0.25 µg/mL; in assay [20] (ATCC 29213 in BHI), 0.12 to 0.25 µg/mL. Besides, the MIC in [20] (ATCC 29213 in MHBCA) was 0.12 to 0.5 µg/mL; in [21] it was >64 (R) μg/ml; in assay [22], 0.25 µg/mL (≈ 0.623 µM); in assay [23] it was 0.5 to 1 µg/mL; in [24], >64 (R) μg/ml; in assay [25], 0.12 µg/mL (≈ 0.299 µM). Further, the MIC in assay [26] was 0.03 to 0.06 µg/mL; in assay [27], 0.125 µg/mL (≈ 0.311 µM). Also, in [22], the “MIC −TO” value was found to be 0.25 µg/mL (≈ 0.623 µM). Further, in assay [22], the “MIC +TO” value came to 0.25 µg/mL. Also, the “Fold (−TO/+TO)” value in assay [22] turned out to be 1 fold.
Regarding `CN(C)[C@@H]1C(=O)C(C(N)=O)=C(O)[C@@]2(O)C(=O)C3=C(O)c4c(O)cccc4[C@@](C)(O)[C@H]3C[C@@H]12` [Tetracycline, tetracycline], the MIC in [1] is 0.5 µg/mL (≈ 1.13 µM); in assay [3], 0.5 µg/mL (≈ 1.13 µM); in [4], 0.25 µg/mL (≈ 0.563 µM); in assay [5] it was 0.5 µg/mL (≈ 1.13 µM); in assay [6], 0.25 to 0.5 µg/mL; in [7], 2 µg/mL (≈ 4.5 µM). Also, the MIC is 0.5 µg/mL (≈ 1.13 µM) in [9]; 0.25 to 0.5 µg/mL in assay [10]; >16 (R) μg/ml in [11]; 0.25 µg/mL (≈ 0.563 µM) in [12]; 0.5 µg/mL (≈ 1.13 µM) in assay [13]; >16 (R) μg/ml in [15]. Moreover, the MIC in assay [16] is 1 to 2 µg/mL; in [17], 0.25 µg/mL (≈ 0.563 µM); in [18], 0.5 µg/mL (≈ 1.13 µM); in assay [19] it was 0.5 µg/mL (≈ 1.13 µM); in [21] it was 0.25 to 0.5 µg/mL; in [22], 0.25 to 0.5 µg/mL. The MIC in assay [23] was 0.25 to 0.5 µg/mL; in assay [24], 0.25 to 0.5 µg/mL; in [25], 0.25 µg/mL (≈ 0.563 µM); in assay [27] it was 0.25 to 0.5 µg/mL. Besides, the “MIC −TO” value in assay [22] was in the range of 0.25 to 0.5 µg/mL. Further, the “MIC +TO” value in [22] was 0.25 to 0.5 µg/mL. In addition, in assay [22], the “Fold (−TO/+TO)” value was 1 fold.
In the case of Solasodan, the “MIC of Cpd against SCV hemB” value in [28] was more than 8 µg/mL. In addition, in [22], the “MIC of Cpd against ATCC29213” value was more than 16 µg/mL and the “Fold (MIC of GEN alone/MIC of GEN with Cpd)” value is on record as 1-2 fold.
Regarding “pregnan-3β-ol-20-(aminobutyl)amine hydrochloride Salt [Compound 44]”, in assay [28], the “MIC of Cpd against SCV hemB” value is more than 8 µg/mL. For the same molecule, in assay [22], the “MIC of Cpd against ATCC29213” value was more than 16 µg/mL and the “Fold (MIC of GEN alone/MIC of GEN with Cpd)” value is 1-2 fold.
Taken in the same sequence, the figures for “pregnan-3β-ol-20-(aminoethyl)amine hydrochloride Salt [Compound 42]” were 4 to 8 µg/mL, more than 16 µg/mL and 1-2 fold.
Taken in the same sequence, the figures for “pregnan-3β-ol-20-(aminopropyl)amine hydrochloride Salt [Compound 43]” were 4 to 8 µg/mL, more than 16 µg/mL and 1-2 fold.
